We go through two compounds from US11939399B2, “Synthetic peptide sp4 and use thereof” (TAIAN CITY QIHANG BIOTECHNOLOGY CO., priority 2018, dated 2024).

“And” between values parts separate entries of the source, which are not always exact repeats. Equal values may be shown once. “Also recorded” adds a separate entry of the source. Ends that are not written are not given here.

Data set [1] relates to subcutaneous human osteosarcoma MG-63 xenograft tumor. The experiment in a line: Detection of human osteosarcoma MG-63 cell cycle in nude mice. The note with it: positive control Paclitaxel group (10 mg/kgBW twice a week). Format: in vivo. As to the method: (B) Detection of Human Osteosarcoma MG-63 Cell Cycle in Nude Mice
1. Preparation of Single Cell Suspension of Solid Tumor
1.1 Tumor block was washed 3 times with PBS buffer and cut into small blocks (1-2 mm), then washed 3 times with PBS, and transferred into a 50 ml centrifuge tube.
1.2 0.25% trypsin solution was added to digested at 37′C for 20-40 min, and gently shaken once every 5 min, to separate cells. 1.3 2 to 5 ml of serum-containing medium was added to terminate the trypsin digestion.
1.4 The suspension was stood for 2-3 min, and transferred to a new centrifuge tube, and filtered with a 200-mesh nylon mesh twice.
1.5 The filtered suspension was centrifuged at 1000 rpm for 5 min, and removed the supernatant.
1.6 5 ml of PBS buffer was added to centrifuge again, and removed the supernatant.
1.7 1 to 2 ml of culture solution was added according to the amount of cells, and the cells were counted for standby.
2. Detection of Cell Cycle
1) The cell culture solution was collected into a centrifuge tube for standby. […]
5) Flow cytometry detection and analysis: the red fluorescence was detected by a flow cytometer at the excitation wavelength of 488 nm, and the light scattering was detected also. […]

Data set [2] in a line: Animal acute toxicity test, maximal tolerable dose (MTD). The data set is classed as in vivo, ICR mice. The note with it: for Mice weight: 700 mg/kg BW dose group. On the procedure: Embodiment 8 Animal Acute Toxicity Test—Maximal Tolerable Dose (MTD)
I. Experimental Conditions: GLP
1. Test animal: Healthy adult ICR mice, male, weight 19-20 g, n=10;
3. Test sample preparation method;
4. Administration route: tail vein injection in mice;
5. Dosing volume: 0.5 ml/time;
6. Frequency of administration: in accordance with FDA guidelines;
Acute toxicity refers to the toxic reaction produced by a drug within a certain period of time after a single dose or multiple-dose within 24 hours. In narrow sense, a single dose toxicity study is to investigate the acute toxic reactions after a single administration of a test substance. This guideline refers to single dose toxicity study in a broad sense, which can be obtained by single or multiple dosing within 24 hours;
II. Detection of Maximal Tolerable Dose (MTD)
Firstly, the working solutions at three concentrations that would not cause the death of test animals were prepared, and one animal was injected via tail veins (1.5 mL, by 3 times). The first dose was 1.5 mL of working solution with 1150 mg/kgBW, which was injected to mice by 3 times via tail veins within 24 hours. On the next day, if no death was found, the remaining 9 animals were injected with the same dose via tail veins (a total of n=10); if the first animal died, the dose would be reduced.

Data set [3] in a line: Body weight and death of tumor-bearing nude mice in the in vivo efficacy test. The arrangement: species or system BALB/c nude mice. The note with it: each treatment group, 4 weeks intravenous administration. As to the method: 4-1. Nude mice were randomly divided into 5 groups: model group, positive control group, sp4 low-dose group, sp4 medium-dose group, and sp4 high-dose group, 6 mice each group (low-dose group: 4 mg/kgBW; medium-dose group: 8 mg/kgBW; high-dose group: 16 mg/kgBW; model group: injected with an equal volume of normal saline; positive control group: injected with paclitaxel at 10 mg/kgBW; administrated twice a week).
4-2. after divided into groups, animals were injected via tail veins at 4:00 pm every day; mice in the model group and the administration group were respectively injected with normal saline and drugs for 4 weeks, and the paclitaxel group was administered paclitaxel twice a week.
4-3, measured the tumor size and body weight on the day of grouping and every other day; TV=0.5*a*b^2, a represents long diameter, b represents short diameter.

For `CC(=O)O[C@H]1C(=O)[C@@]2(C)[C@H]([C@H](OC(=O)c3ccccc3)[C@]3(O)C[C@H](OC(=O)[C@H](O)[C@@H](NC(=O)c4ccccc4)c4ccccc4)C(C)=C1C3(C)C)[C@]1(OC(C)=O)CO[C@@H]1C[C@@H]2O` [Paclitaxel], the “cell cycle effect in subcutaneous human osteosarcoma xenograft tumor models” value in data set [1] is “significant G1 phase arrest”.
For orientation: MTD means the highest dose tested that stayed within the study's limit of toxicity. Read a low MTD as poorer tolerability. On to FLFSLIPSAISG [sp4], for which the Mice weight in data set [2] (individual mice No. 1-10, 2018 May 15) is 20.5 g and 20.2 g (2×) and 20.6 g and 20.7 g and 20.4 g and 20.9 g and 20.1 g and 20 g and 20.3 g; in data set [2] (individual mice No. 1-10, 2018 May 16) it was 20.5 g (3×) and 20.7 g and 21.3 g and 21.2 g and 20.8 g and 20.4 g (2×) and 21.5 g; in data set [2] (individual mice No. 1-10, 2018 May 17) it was 21.1 g (3×) and 21.7 g and 21.3 g and 21.4 g and 20.8 g (2×) and 22.2 g and 21.2 g; in data set [2] (individual mice No. 1-10, 2018 May 18), 21.5 g (3×) and 22.1 g and 21.9 g (3×) and 21.7 g and 22.7 g and 21.1 g; in data set [2] (individual mice No. 1-10, 2018 May 19), 21.9 g and 21.6 g and 22.6 g (2×) and 22.5 g (3×) and 21.8 g (2×) and 23 g; in data set [2] (individual mice No. 1-10, 2018 May 20) it was 22.3 g and 22.8 g (5×) and 22.4 g and 23.7 g and 22.9 g and 22.5 g. The Mice weight was 22.7 g and 22.9 g (2×) and 23.5 g and 23.1 g (3×) and 24.1 g and 23.3 g and 23.4 g in data set [2] (individual mice No. 1-10, 2018 May 21); 23.3 g and 23.5 g (2×) and 24.1 g and 23.6 g and 23.2 g and 24.8 g and 23.8 g (2×) and 23.4 g in data set [2] (individual mice No. 1-10, 2018 May 22); 24.0 g and 24.1 g (2×) and 24.8 g and 24.2 g (2×) and 23.7 g and 25.1 g and 24.5 g and 24.4 g in data set [2] (individual mice No. 1-10, 2018 May 23); 24.7 g (4×) and 25.2 g and 23.9 g and 25.6 g and 25.1 g and 24.8 g and 24.6 g in data set [2] (individual mice No. 1-10, 2018 May 24); 25.3 g and 25.5 g (2×) and 25.8 g and 25.1 g (3×) and 24.8 g and 26.1 g and 24.9 g in data set [2] (individual mice No. 1-10, 2018 May 25); 25.8 g and 25.9 g (3×) and 26.3 g and 25.6 g (2×) and 25.2 g and 26.5 g and 25.5 g in data set [2] (individual mice No. 1-10, 2018 May 26). For the same compound, the Mice weight in data set [2] (individual mice No. 1-10, 2018 May 27) was 26.1 g and 26.2 g (2×) and 26.8 g and 26.3 g (2×) and 26.4 g and 27.2 g and 26 g and 25.8 g; in data set [2] (individual mice No. 1-10, 2018 May 28), 27.2 g and 27.1 g and 27.3 g and 26.9 g and 26.8 g (3×) and 27.7 g and 26.4 g and 26.6 g; in data set [2] (individual mice No. 1-10, 2018 May 29), 28.1 g and 27.9 g and 28.5 g and 27.2 g and 27.6 g and 27.5 g (2×) and 28.3 g and 27.1 g (2×). Moreover, the “Survival Rate %” value in data set [2] (700 mg/kg, 3 times/9 h, n=10) is 100%. The “toxic reactions and deaths within 2 weeks after administration” value in data set [2] (ICR mice, 700 mg/kgBW intravenous) was “no toxic reactions and deaths occurred; also recorded: no behavioral abnormalities and deaths were observed”. The “toxic reactions and deaths within 24 hours” value in data set [2] (ICR mice, 700 mg/kgBW intravenous, three times within 24 h) was “no toxic reactions and deaths occurred; also recorded: no toxic reaction and death were observed”. In addition, the Survival or not result in data set [2] (individual animals No. 1-10, 700 mg/kg, 3 times/9 h) is reported as “Survival”. In data set [2] (male, mouse, in vivo, iv, ICR mice, tail vein injection, administered by three times within 24 h), this compound gave a maximal tolerated dose (MTD) at 336 h of 700 mg/kg. The “death in the in vivo efficacy test” value in data set [3] is listed as “no death occurred”. The “weight gain of tumor-bearing nude mice vs control group” value in data set [3] (P>0.05) is reported as “not significantly different”.
